From ChEMBL document CHEMBL6134813, “Arctigenin derivative TZOA restores mitochondrial homeostasis to combat rhabdovirus infections” (Eur J Med Chem, 2025)
Activity calls are given as the source filed them. No cut-off for these calls is given here.

Columns and labels:
[1] = Cytotoxicity against EPC cells (unknown origin) assessed as cell viability up to 25 uM measured after 72 hrs by CCK8 assay; assay type: toxicity, cell-based
[2] = Cytotoxicity against EPC cells (unknown origin) assessed as cell viability at 64 uM measured after 72 hrs by CCK8 assay; assay type: toxicity, cell-based
[3] = tested on: Infectious hematopoietic necrosis virus; assay: Antiviral activity against IHNV infected in EPC cells (unknown origin) assessed as inhibition of viral N gene expression measured after 72 hrs by RT-qPCR analysis; assay type: functional, organism-based; conditions: dose 0.1-100 µM
[4] = tested on: Infectious hematopoietic necrosis virus; assay: Antiviral activity against IHNV infected in EPC cells (unknown origin) assessed as inhibition of viral G gene expression measured after 72 hrs by RT-qPCR analysis; assay type: functional, organism-based; conditions: dose 0.1-100 µM
[5] = tested on: Infectious hematopoietic necrosis virus; assay: Antiviral activity against IHNV infected in EPC cells (unknown origin) assessed as inhibition of viral M gene expression measured after 72 hrs by RT-qPCR analysis; assay type: functional, organism-based; conditions: dose 0.1-100 µM
[6] = tested on: Infectious hematopoietic necrosis virus; assay: Antiviral activity against IHNV infected in EPC cells (unknown origin) assessed as inhibition of viral N gene expression at 25 uM measured after 72 hrs by RT-qPCR analysis relative to control; assay type: functional
[7] = tested on: Infectious hematopoietic necrosis virus; assay: Antiviral activity against IHNV infected in EPC cells (unknown origin) assessed as inhibition of viral G gene expression at 25 uM measured after 72 hrs by RT-qPCR analysis relative to control; assay type: functional
[8] = tested on: Infectious hematopoietic necrosis virus; assay: Antiviral activity against IHNV infected in EPC cells (unknown origin) assessed as inhibition of viral M gene expression at 25 uM measured after 72 hrs by RT-qPCR analysis relative to control; assay type: functional
[9] = tested on: Infectious hematopoietic necrosis virus; assay: Antiviral activity against IHNV infected in EPC cells (unknown origin) assessed as inhibition of viral infection at 4 to 25 uM measured after 72 hrs by RT-qPCR analysis; assay type: functional, organism-based; conditions: dose 4-25 µM
[10] = tested on: Infectious hematopoietic necrosis virus; assay: Antiviral activity against IHNV infected in EPC cells (unknown origin) assessed as decrease in formation of new viral particles at 25 uM measured after 72 hrs by RT-qPCR analysis relative to control; assay type: functional; design: scale not given: the % may be the effect or the level left
[11] = tested on: Infectious hematopoietic necrosis virus; assay: Antiviral activity against IHNV infected in EPC cells (unknown origin) assessed as reduction in cytopathic effect at >4 uM measured after 72 hrs by RT-qPCR analysis; assay type: functional, organism-based
[12] = tested on: Infectious hematopoietic necrosis virus; assay: Antiviral activity against IHNV infected in EPC cells (unknown origin) assessed as increase in cell proliferation at 4 uM measured after 72 hrs by CCK8 assay relative to control; assay type: functional
[13] = tested on: Infectious hematopoietic necrosis virus; assay: Antiviral activity against IHNV infected in EPC cells (unknown origin) assessed as inhibition of viral replication at 25 uM preincubated for 24 hrs followed by viral infection measured after 72 hrs by RT-qPCR analysis; assay type: functional, organism-based; conditions: time 96.0 hrs
[14] = tested on: Infectious hematopoietic necrosis virus; assay: Antiviral activity against IHNV infected in EPC cells (unknown origin) assessed as inhibition of viral replication at 25 uM pre-infected with virus for 6 hrs followed by compound addition measured after 72 hrs by RT-qPCR analysis relative to control; assay type: functional
[15] = tested on: Infectious hematopoietic necrosis virus; assay: Antiviral activity against IHNV infected in EPC cells (unknown origin) assessed as reduction in cytopathic effect at 25 uM pretreated virus with compound for 1 to 2 hrs followed by compound-treated virus infection in EPC cells measured after 72 hrs by RT-qPCR analysis; assay type: functional, organism-based; conditions: time 1-2 hrs
[16] = tested on: Infectious hematopoietic necrosis virus; assay: Antiviral activity against IHNV infected in EPC cells (unknown origin) assessed as unchanged morphology in host cells at 25 uM pretreated virus with compound for 4 hrs followed by compound-treated virus infection in EPC cells measured after 72 hrs by microscopic analysis; assay type: functional, organism-based
[17] = tested on: Infectious hematopoietic necrosis virus; assay: Antiviral activity against IHNV infected in EPC cells (unknown origin) assessed as dense monolayer arrangement in host cells at 25 uM pretreated virus with compound for 4 hrs followed by compound-treated virus infection in EPC cells measured after 72 hrs by microscopic analysis; assay type: functional, organism-based
[18] = tested on: Infectious hematopoietic necrosis virus; assay: Antiviral activity against IHNV infected in EPC cells (unknown origin) assessed as reduction in viral G protein expression at 25 uM pretreated virus with compound for 4 hrs followed by compound-treated virus infection in EPC cells measured after 72 hrs by RT-qPCR analysis relative to control; assay type: functional; design: scale not given: the % may be the effect or the level left
[19] = tested on: Infectious hematopoietic necrosis virus; assay: Antiviral activity against IHNV infected in EPC cells (unknown origin) assessed as reduction in viral G protein expression at 25 uM pretreated virus with compound for 1 hr followed by compound-treated virus infection in EPC cells measured after 72 hrs by RT-qPCR analysis relative to control; assay type: functional; design: scale not given: the % may be the effect or the level left
[20] = tested on: Infectious hematopoietic necrosis virus; assay: Antiviral activity against IHNV infected in EPC cells (unknown origin) assessed as reduction in viral G protein expression at 25 uM pretreated virus with compound for 2 hrs followed by compound-treated virus infection in EPC cells measured after 72 hrs by RT-qPCR analysis relative to control; assay type: functional; design: scale not given: the % may be the effect or the level left
[21] = tested on: Infectious hematopoietic necrosis virus; assay: Antiviral activity against IHNV infected in EPC cells (unknown origin) assessed as reduction in viral load for adsorption at 25 uM measured after 1 hr of incubation at 4 degreeC by RT-qPCR analysis relative to control; assay type: functional; design: scale not given: the % may be the effect or the level left
[22] = tested on: Infectious hematopoietic necrosis virus; assay: Antiviral activity against IHNV infected in EPC cells (unknown origin) assessed as reduction in viral load for internalization at 25 uM incubated for 1 hr at 4 degreeC followed by 2 hrs of incubation at 25 degreeC by RT-qPCR analysis relative to control; assay type: functional; design: scale not given: the % may be the effect or the level left; conditions: time 3 hrs
[23] = tested on: Infectious hematopoietic necrosis virus; assay: Antiviral activity against IHNV infected in EPC cells (unknown origin) assessed as uniform shaped nuclei at 25 uM measured after 72 hrs by fluorescence microscopy; assay type: functional, organism-based
[24] = tested on: Infectious hematopoietic necrosis virus; assay: Antiviral activity against IHNV infected in EPC cells (unknown origin) assessed as uniform sized nuclei at 25 uM measured after 72 hrs by fluorescence microscopy; assay type: functional, organism-based
[25] = tested on: Infectious hematopoietic necrosis virus; assay: Antiviral activity against IHNV infected in EPC cells (unknown origin) assessed as reversal of chromatin condensation at 25 uM measured after 72 hrs by fluorescence microscopy; assay type: functional, organism-based
[26] = tested on: Infectious hematopoietic necrosis virus; assay: Antiviral activity against IHNV infected in EPC cells (unknown origin) assessed as minimal number of apoptotic bodies within observed area at 25 uM measured after 72 hrs by fluorescence microscopy; assay type: functional, organism-based
[27] = tested on: Infectious hematopoietic necrosis virus; assay: Antiviral activity against IHNV infected in EPC cells (unknown origin) assessed as viral titer measured per 0.1 ml incubated for 48 hrs by Reed-Muench method (reference value: 1 10^5.75TCID50); assay type: functional
[28] = tested on: Infectious hematopoietic necrosis virus; assay: Antiviral activity against IHNV infected in EPC cells (unknown origin) assessed as viral titer measured per 0.1 ml incubated for 72 hrs by Reed-Muench method (reference value: 1 10^6.74TCID50); assay type: functional
[29] = tested on: Infectious hematopoietic necrosis virus; assay: Antiviral activity against IHNV infected in EPC cells (unknown origin) assessed as viral titer measured per 0.1 ml incubated for 96 hrs by Reed-Muench method (reference value: 1 10^7.77TCID50); assay type: functional
[30] = tested on: Infectious hematopoietic necrosis virus; assay: Antiviral activity against IHNV infected in EPC cells (unknown origin) assessed as reduction in virus-induced disruption of mitochondrial membrane potential at 25 uM incubated for 72 hrs by JC-1 dye based analysis; assay type: functional, organism-based

For `COc1ccc(C[C@H]2COC(=O)[C@@H]2Cc2ccc(OCCCCCCCCn3cncn3)c(OC)c2)cc1OC`, the Activity [1] was “Non-toxic”, the Activity [2] was “Toxic” and the inhibition [3] was “Dose-dependent-effect”. The inhibition [4] was “Dose-dependent-effect”, the inhibition [5] was “Dose-dependent-effect” and the inhibition at 25 µM [6] was over 90%. For the same compound, the inhibition at 25 µM [7] was over 90%, the inhibition at 25 µM [8] was over 90% and the inhibition [9] was “Active”. The Activity [10] was 100%, the Activity [11] was “Active” and the Activity [12] was over 50%. For the same compound, the inhibition [13] was “Active”, the inhibition at 25 µM [14] was 80% and the Activity [15] was “Active”. The Activity [16] was “Active”, the Activity [17] was “Active” and the Activity [18] was 67%. The Activity [19] was 10%, the Activity [20] was 24% and the Activity [21] was 20%. The Activity [22] was 46%, the Activity [23] was “Active” and the Activity [24] was “Active”. For the same compound, the Activity [25] was “Active”, the Activity [26] was “Active” and the Activity [27] was 1 10^2.45TCID50. The Activity [28] was 1 10^4.73TCID50, the Activity [29] was 1 10^5.48TCID50 and the Activity [30] was “Active”.
